Laboratory results reported in US12679878B2, “CRF2 receptor agonists and their use in therapy” (SANOFI, priority 2020, dated 2026).
Converted amounts (≈) assume the structure as drawn. Like-named read-outs stand apart in the source and are kept apart here. Starred links: 1 amine or outer side, 2 acyl side, 3 side chain; linkers in the order of their positions; H or OH if unused. Non-standard residues stand in square brackets, D forms with d. Residues, ends and D or L forms follow the SMILES beside them. Groups on a side chain read outwards from the residue. *: point of attachment. C20 diacid = O=C(O)CCCCCCCCCCCCCCCCCCC(=O)*; C18 diacid = O=C(O)CCCCCCCCCCCCCCCCC(=O)*; γGlu = O=C(O)[C@H](CCC(=O)[*:2])N[*:1]; Palmitoyl = CCCCCCCCCCCCCCCC(=O)*; AEEA = NCCOCCOCC(=O)O; Aib = CC(C)(N)C(=O)O

Legend:
[1] = biological target: T1, CRF2R (Homo sapiens, UniProt Q13324); test: EC50 [nM] CRF2R
T1 construct: expressed in transfected cells; host or cells: TeloHEAC
From the text: (§1) Table printed on a drawing sheet, Fig. 3
Head of the field: EC50 [nM] CRF2R
(§2) The patent's description of the figure: FIG. 3: Representative sequences from peptides according to the invention with an optimized stability profile, wherein K[sema] stands for K[gGlu-C(O)(CH2)14CH3]
(§3) First copying reader's note: Second half (positions 13-38, C-term and activity) of the first table; the rows follow the same order, so the four rows of Peptide Seq. 1 are Patent Sequence N° 130, 171, 172 and 173.
Where the first naming reader finds the target: head: EC50 [nM] CRF2R

[2] = biological target: T2, hCRF1 (Homo sapiens, UniProt P34998); test: hCRF1 EC50 [nM]
T2 construct: host or cells: CHO-K1 clone 2
From the text: as §1
Head of the field: hCRF1 EC50 [nM]
as §2, §3
Where the first naming reader finds the target: head: hCRF1 EC50 [nM]

[3] = biological target: T3, human CRF2α receptor (Homo sapiens, UniProt Q13324); test: cAMP agonism at human CRF2 α receptor in TeloHEAC cells (Example 7); type: cell-based; settings: cAMP HTRF, TeloHEAC cells stably expressing human CRF2 α
T3 construct: expressed in transfected cells; host or cells: TeloHEAC
T3 sequence (Q13324 1-411): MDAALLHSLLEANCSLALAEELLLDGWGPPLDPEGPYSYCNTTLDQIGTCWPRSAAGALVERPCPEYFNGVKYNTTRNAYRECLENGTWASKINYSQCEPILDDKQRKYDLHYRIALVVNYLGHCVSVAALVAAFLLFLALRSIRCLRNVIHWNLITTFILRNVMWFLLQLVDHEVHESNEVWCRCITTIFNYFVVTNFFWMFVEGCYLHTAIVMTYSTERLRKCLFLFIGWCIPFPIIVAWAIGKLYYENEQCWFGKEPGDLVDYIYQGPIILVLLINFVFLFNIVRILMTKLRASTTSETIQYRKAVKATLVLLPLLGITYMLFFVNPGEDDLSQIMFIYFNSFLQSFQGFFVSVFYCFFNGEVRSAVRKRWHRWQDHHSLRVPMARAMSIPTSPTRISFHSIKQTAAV
Summary of the method: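 Thawed frozen stably transfected cells in HBSS/20 mM HEPES (0% or 0.1% HSA) plus 2 mM IBMX were exposed to compound at 2000 cells/well for 30 min at room temperature. Intracellular cAMP was read by HTRF (665/620 nm ratio) after 1 h lysis; EC50 was derived with 1000 nM urocortin 2 set as 100%.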

[4] = test system: rat CRF2R α receptor; test: cAMP agonism at rat CRF2R α receptor in A7R5 rat aortic smooth muscle cells (Example 8); type: cell-based; settings: cAMP HTRF, A7R5 rat aortic smooth muscle cell line, 0% HSA
Summary of the method: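 Potency (EC50) is the concentration reaching half-maximal activation, with responses scaled so that 1000 nM urocortin 2 equals 100%. Intracellular cAMP was quantified by homogeneous time-resolved fluorescence at 665/620 nm, 1 h after lysis-buffer reagents. Compound stimulation lasted 30 min at room temperature on 2000 IBMX-treated (2 mM) cells per well in HEPES-buffered HBSS.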

[5] = biological target: T4, CRF1R receptor (Homo sapiens, UniProt P34998); test: cAMP activity at anti-target CRF1R, CRF1R-overexpression CHO cell line (Example 9); type: cell-based; settings: CRF1R-overexpression CHO cell line; for EC50: 0% HSA; for Emax: read-out: Emax (%)
T4 construct: host or cells: CHO-K1 clone 2
T4 sequence (P34998 24-415): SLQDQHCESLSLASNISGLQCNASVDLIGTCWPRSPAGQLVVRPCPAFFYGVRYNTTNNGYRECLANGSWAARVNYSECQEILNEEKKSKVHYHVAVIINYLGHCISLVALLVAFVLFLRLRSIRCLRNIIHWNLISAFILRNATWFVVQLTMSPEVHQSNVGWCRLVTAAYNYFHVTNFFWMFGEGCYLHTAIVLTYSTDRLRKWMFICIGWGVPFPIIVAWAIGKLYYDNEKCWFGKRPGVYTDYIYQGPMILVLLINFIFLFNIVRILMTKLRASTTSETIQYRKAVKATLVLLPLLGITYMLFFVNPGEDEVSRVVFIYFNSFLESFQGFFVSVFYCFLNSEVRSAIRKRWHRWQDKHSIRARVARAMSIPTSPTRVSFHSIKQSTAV
Summary of the method: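 Using thawed CRF1R-overexpressing CHO cells at 2000 per well, compound is applied for 30 min at RT in HBSS/HEPES buffer with IBMX. Cellular cAMP content is determined via HTRF, and percent activity is calculated against 1000 nM UCN2 defined as 100%.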

[6] = biological target: T5, endogenous human CRF2 (Homo sapiens, UniProt Q13324); test: cAMP agonist effect in NCI-H82 cells expressing endogenous human CRF2 (Example 10); type: cell-based; settings: cAMP HTRF, 5 min activation
T5 construct: endogenous in cells; host or cells: NCI-H82
T5 sequence (Q13324 1-411): T3 sequence (Q13324 1-411)
Method: The agonist effect of the compounds was assessed in NCI-H82 cells expressing endogenous human CRF2.
NCI-H82 cells in suspension were plated in low-volume 384-well plates at a density of 30000 cells/well in 5 μl of test medium (RPMI+1 mM IBMX). The plates were briefly centrifuged at 800 rpm to allow the cell suspension to move to the bottom of the wells and then incubated for 2 hours at 37° C. in 5% CO2. 5 μl of test compounds at appropriate concentrations (10-11 to 3×10-7) diluted in test medium were then transferred in 384 wells plates. After 5 min of activation, the reaction was stopped by addition of HTRF revelation reagents with a multidrop dispenser. The two reagents were 5 μl/well of Anti-CAMP-cryptate diluted 20-fold in conjugate and lysis buffer and 5 μl/well of cAMP-D2 diluted 20-fold in conjugate and lysis buffer. After one-hour incubation at room temperature in the dark, the plates were read on a Clariostar apparatus.

[7] = Solubility in buffer systems by UPLC-UV (Example 13); type: physicochemical
Summary of the method: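 Quantitation used UV peak area from UPLC of the 1:10-diluted supernatant, set against a reference-compound standard curve with extinction coefficients adjusted for amino acid sequence.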

[8] = Chemical stability, purity loss by UPLC-UV after 28 days at 40° C. vs 5° C., pH 4.5 acetate buffer (Example 12); type: physicochemical; settings: 28 days 40° C. vs 5° C.; pH 4.5, 20 mM acetate buffer; 300 μM
Summary of the method: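 300 μM compound (purity-corrected) in 20 mM acetate buffer, pH 4.5, stored 28 days at 5 and 40° C. Purity by UPLC-UV as compound peak area over total peak area. Value is the purity difference between 5° C. and 40° C. samples, relative to the 5° C. purity, in percent.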

[9] = Physical stability, Thioflavin T fibrillation assay (Example 14); type: physicochemical; settings: Buffer B: 100 mM acetate buffer, pH 4.5, 2.7 mg/ml m-cresol; 3 mg/ml; 37° C. shaking
Summary of the method: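 Fibrillation tendency was judged from lag time and rise in Thioflavin T fluorescence, measured every 20 minutes over eight replicates per sample. Peptides at 3 mg/ml final were held at 37° C under cycles of 10 s shaking (960 rpm) and 50 s rest.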

[10] = 0% HSA, read-out: EC50 [nM], 0% HSA
[11] = 0.1% HSA, read-out: EC50 [nM], 0.1% HSA

Compound | EC50 [1] [nM] | EC50 [2] [nM] | EC50 [3, 10] [nM] | EC50 [3, 11] [nM] | EC50 [4] [nM] | EC50 [5] [nM] | Emax [5] [%] | EC50 [6] [nM] | solubility at 1 h ([7]; pH 4.5, Solubility in Buffer B [mg/ml]) [mg/mL] | solubility at 1 h ([7]; pH 7.4, Solubility in Buffer C [mg/ml]) [mg/mL] | Relative purity loss [%] [8] [%] | Increase in FI (fluorescence intensity) [9] | Lag time [9] [h]
CCCCCCCCCCCCCCCC(=O)N[C@@H](CCC(=O)NCCCC[C@H](NC(=O)[C@@H](NC(=O)[C@H](CCCCN)NC(=O)[C@@H](NC(=O)[C@@H]1CCCN1C(=O)[C@@H](NC(=O)[C@H](CC(=O)O)NC(=O)[C@H](CC(C)C)NC(=O)[C@H](CO)NC(=O)[C@H](CC(C)C)NC(=O)[C@@H](NC(=O)[C@@H](N)Cc1ccccc1)[C@@H](C)O)C(C)C)[C@@H](C)O)[C@@H](C)CC)C(=O)N[C@@H](CCC(N)=O)C(=O)N[C@@H](CCCCN)C(=O)N[C@@H](CC(C)C)C(=O)N[C@@H](CC(C)C)C(=O)N[C@@H](CCCCN)C(=O)N[C@@H](CCC(N)=O)C(=O)N[C@@H](CCC(=O)O)C(=O)N[C@@H](CCCCN)C(=O)N[C@@H](CCC(N)=O)C(=O)N[C@@H](CCCCN)C(=O)N[C@@H](CCCCN)C(=O)N[C@@H](CCC(N)=O)C(=O)N[C@@H](CCCNC(=N)N)C(=O)N[C@@H](CCC(N)=O)C(=O)N[C@@H](CCCCN)C(=O)N[C@@H](C)C(=O)N[C@@H](CCCCN)C(=O)N[C@H](C(=O)N[C@@H](CC(N)=O)C(=O)N[C@@H](CCCCN)C(=O)N[C@@H](CCC(N)=O)C(=O)N[C@H](C(=O)N[C@@H](CC(C)C)C(=O)N[C@@H](CCC(=O)O)C(=O)N[C@@H](CCC(N)=O)C(=O)N[C@H](C(N)=O)C(C)C)[C@@H](C)CC)[C@@H](C)O)C(=O)O [SEQ ID NO: 10] (H-FTLSLDVPTKIK([γGlu-Palmitoyl])QKLLKQEKQKKQRQKAKTNKQILEQV-NH2) | 0.07 | 91 | – | – | – | – | – | – | – | – | – | – | –
CC[C@H](C)[C@H](N)C(=O)N[C@H](C(=O)N[C@@H](CC(C)C)C(=O)N[C@@H](CO)C(=O)N[C@@H](CC(C)C)C(=O)N[C@@H](CC(=O)O)C(=O)N[C@H](C(=O)N1CCC[C@H]1C(=O)N[C@H](C(=O)N[C@@H](CCCCN)C(=O)N[C@@H](CC(C)C)C(=O)N[C@@H](CCCCNC(=O)COCCOCCNC(=O)COCCOCCNC(=O)CC[C@H](NC(=O)CCCCCCCCCCCCCCCCCCC(=O)O)C(=O)O)C(=O)N[C@@H](CCC(N)=O)C(=O)N[C@H](C(=O)N[C@@H](CC(C)C)C(=O)N[C@@H](CC(C)C)C(=O)N[C@@H](CCC(=O)O)C(=O)N[C@@H](CCC(N)=O)C(=O)N[C@@H](CCC(=O)O)C(=O)N[C@@H](CCCCN)C(=O)N[C@@H](CCC(N)=O)C(=O)N[C@@H](CCCCN)C(=O)NC(C)(C)C(=O)N[C@@H](CCC(N)=O)C(=O)N[C@@H](CCCNC(=N)N)C(=O)N[C@@H](CCC(=O)O)C(=O)N[C@@H](CCC(N)=O)C(=O)N[C@@H](C)C(=O)N[C@@H](CCC(=O)O)C(=O)N[C@H](C(=O)N[C@@H](CC(N)=O)C(=O)N[C@@H](CCCCN)C(=O)N[C@@H](CCC(N)=O)C(=O)N[C@H](C(=O)N[C@@H](CC(C)C)C(=O)N[C@@H](C)C(=O)N[C@@H](CCC(N)=O)C(=O)N[C@H](C(N)=O)C(C)C)[C@@H](C)CC)[C@@H](C)O)[C@@H](C)CC)[C@@H](C)CC)C(C)C)C(C)C [compound 81] (H-IVLSLDVPIKLK([AEEA-AEEA-γGlu-C20 diacid])QILLEQEKQK[Aib]QREQAETNKQILAQV-NH2) | – | – | 0.14 | 18.5 | 0.94 | > 1000 | 23.3 | 110 | 20.4 (≈ 3.97 mM) | > 9.6 | – | – | –
CC[C@H](C)[C@H](N)C(=O)N[C@H](C(=O)N[C@@H](CC(C)C)C(=O)N[C@@H](CO)C(=O)N[C@@H](CC(C)C)C(=O)N[C@@H](CC(=O)O)C(=O)N[C@@H](C(=O)N1CCC[C@H]1C(=O)N[C@H](C(=O)N[C@@H](CCCCN)C(=O)N[C@@H](CC(C)C)C(=O)N[C@@H](CCCCNC(=O)COCCOCCNC(=O)COCCOCCNC(=O)CC[C@H](NC(=O)CCCCCCCCCCCCCCCCC(=O)O)C(=O)O)C(=O)N[C@@H](CCC(N)=O)C(=O)N[C@H](C(=O)N[C@@H](CC(C)C)C(=O)N[C@@H](CC(C)C)C(=O)N[C@@H](CCCCN)C(=O)N[C@@H](CCC(N)=O)C(=O)N[C@@H](CCC(=O)O)C(=O)N[C@@H](CCCNC(=N)N)C(=O)N[C@@H](CCC(N)=O)C(=O)N[C@@H](CCCCN)C(=O)NC(C)(C)C(=O)N[C@@H](CCC(N)=O)C(=O)N[C@@H](CCCNC(=N)N)C(=O)N[C@@H](CCC(=O)O)C(=O)N[C@@H](CCC(N)=O)C(=O)N[C@@H](C)C(=O)N[C@@H](CCC(=O)O)C(=O)N[C@@H](CCCCN)C(=O)N[C@@H](CC(N)=O)C(=O)N[C@@H](CCCCN)C(=O)N[C@@H](CCC(N)=O)C(=O)N[C@H](C(=O)N[C@@H](CC(C)C)C(=O)N[C@@H](C)C(=O)N[C@@H](CCC(N)=O)C(=O)N[C@H](C(N)=O)C(C)C)[C@@H](C)CC)[C@@H](C)CC)[C@@H](C)CC)C(C)C)C(C)C [compound 130] (H-IVLSLD[dV]PIKLK([AEEA-AEEA-γGlu-C18 diacid])QILLKQERQK[Aib]QREQAEKNKQILAQV-NH2; N-terminus assumed) | – | – | 0.05 | 2.11 | 0.13 | > 1000 | 20.3 | 4.3 | – | – | 4.25 | No | >45
